Legend:
[1] = biological target: T1, CDK7/Cyclin H/MAT-1 complex (Homo sapiens, UniProt P50613); test: Absorbance kinetic assay (20 nM CDK7/Cyclin H/MAT-1 complex); assay type: biochemical; conditions: for IC50: read-out: CDK7 (20 nM) pIC50 (converted)
T1 construct: Human CDK7 (amino acids 1-346); His6 (N); TEV protease cleavage site (N); made in house; host or cells: baculovirus-SF9 insect cells
Method: Human CDK7 (amino acids 1-346) containing an N-terminal His6-tag followed by a tobacco etch virus (TEV) protease cleavage site, human MAT1 (amino acids 1-309) and human cyclin H (amino acids 1-323) were co-expressed in the baculovirus-SF9 insect cell expression system to generate a trimeric complex. Cell pellets were collected 72 h post-infection and were resuspended by Dounce homogenization in 20 mM Hepes-NaOH (pH 8.0), 300 mM NaCl, 10% glycerol, 2 mM dithiothreitol DTT), and 20 mM Imidazole supplemented with cOmplete™ Protease Inhibitor Cocktail (Roche) and 25 U/mL Benzonase® Nuclease HC according to the manufacturer's instructions. Cells were lysed by passing through a Microfluidics M110Y Microfluidizer 3 times at 600 kPa followed by centrifugation at 38,000×g at 4° C. for 1 hour. The supernatant was loaded onto a pre-equilibrated HisTrap HP column and eluted in 20 mM Hepes-NaOH (pH 8.0), 50 mM NaCl, 10% glycerol, 2 mM DTT, and 400 mM Imidazole. The eluate was further purified by gel filtration on a Superdex S200 16/60 column and eluted with 20 mM Hepes-NaOH (pH 7.5), 50 mM NaCl, 10% Glycerol, 2 mM DTT. Fractions containing a trimeric complex of CDK7, cyclin H, and MAT1 in a 1:1:1 ratio were pooled and concentrated to 3 mg/mL in a 10 kDa MWCO concentrator, and diluted to a final concentration of 1.6 mg/mL in 11.1 mM Hepes-NaOH (pH 8.0), 27.8 mM NaCl, 1.1 mM DTT and 50% glycerol. […]
Absorbance Kinetic Assay (20 nM CDK7/Cyclin H/MAT-1 Complex)
CDK7 complex catalyzes the ATP-dependent phosphorylation of a peptide substrate CDK7/9-tide that is derived from RNA Pol II to produce phosphorylated peptide and ADP. The kinase reaction product ADP was converted to lactate and NAD^+ in the presence of phosphoenol pyruvate (PEP), NADH and coupling enzymes lactate dehydrogenase (LDH) and pyruvate kinase (PK). CDK7 complex catalytic activity was measured by following the absorbance intensity continuously at 340 nm that corresponds with the depletion of NADH.
Absorbance at 340 nm was followed kinetically at an interval of 2 minutes for 8 hours.
The assay was carried out with 100 μl reaction volume per well in a 384-well plate that was pre-spotted nanoliter volume of compounds by LabCyte Echo 555. Compound dilution plates were made by 2-fold (could vary upon necessity) dilution in DMSO for 11 concentrations plus a DMSO control of uninhibited reaction. 2× substrate and coupling reagent mixture was added to the assay plate followed by an addition of an equal volume of 40 nM CDK7/Cyclin H/MAT-1 complex. After mixing, assay plates were spun at 2000 rpm for 3 minutes and then transferred to the plate reader for data collection.
For reversible inhibitors, the absorbance reaction progress curves were linear. The steady-state rate was derived from the slope of the linear curves. The following equation is applied to determine percent inhibition.
[formula] • νo=max rate (uninhibited rate) • νi=inhibited rate
The IC50 value is calculated by the following equation:
[formula] where νo is the rate in the absence of inhibitor, νmin is the rate at highest inhibitor concentration, and h is the Hill coefficient. Flint Assay (5 nM CDK7/Cyclin H/MAT-1 Complex)

[2] = system: RNA polymerase II Serine 5 phosphorylation (Rpb1 CTD), downstream substrate of CDK7; test: Imaging-based cellular RNA PolII Ser5 phosphorylation assay in A549 cells; assay type: cell-based, human; conditions: Homo sapiens, A549, 3 h, challenged with compound for 3 hours, read-out: pRNA polII Ser5 (A549) pIC50 (converted)
Text: Dosing curves were fitted using the following equation to obtain IC50: Y=Bottom+(Top−Bottom)/(1+10^((log IC50−X)*Hill slope)) where X=log10 of the compound concentration; top and bottom can be defined by PC and NC respectively. Imaging-Based Cellular RNA PolII Ser5 Phosphorylation Assay
To evaluate inhibition of CDK7 kinase activity, a 384-well automated imaging assay was used. This assay detects Serine 5 phosphorylation on a unique heptapeptide sequence in the C-terminal domain of Rpb1 subunit of RNA polymerase II, the downstream substrate of CDK7. This heptapeptide sequence is repeated up to 52 times in the CTD of Rpb1.
A549 adenocarcinoma human alveolar basal epithelial cells (ATCC, CCL-185), rabbit Phospho-Rpb1 CTD (Ser5) antibody (D9N51 (Cell Signaling Technology)), DMEM (Sigma), Fetal Bovine Serum (Biowest), L-glutamine (Sigma), Penicillin/Streptomycin (Life Technologies), Sodium Pyruvate (Sigma), Hepes (Sigma), poly-D-lysine coated μclear 384 black plates (Greiner), formaldehyde (PolySciences), D-PBS (Sigma), Methanol (Sigma), Alexa Fluor 488 goat anti rabbit IgG secondary antibody (Life Technologies), HCS CellMask™ Deep Red stain (Life Technologies), Hoechst 33258 (Invitrogen).
RNA Polymerase II Serine 5 phosphorylation was detected using a specific rabbit Phospho-Rpb1 CTD (Ser5) antibody. A549 adenocarcinoma human alveolar basal epithelial cells were seeded in 20 μl medium (DMEM supplemented with 1% Fetal Bovine Serum (heat inactivated 30′ 56° C.), 2 mM L-glutamine, 50 U/ml penicillin 50 μg/ml streptomycin, 1 mM sodium pyruvate and 50 mM hepes) at 1000 cells/well and cultured in poly-D-lysine coated μclear 384 black plates for 20 hours at 37° C. and 5% CO2.
After incubation cells were challenged with compound for 3 hours at 37° C. and 5% CO2. DMSO was used as high control and as low control 10 μM of LDC4297 reference compound was used. 40 nl of test compounds and controls were spotted in cell plates using Echo Liquid Handler (Echo 550, Labcyte). Incubation was followed by 20 minutes fixation with 20 μl 10% formaldehyde at room temperature. Medium/formaldehyde solution was removed, plates were washed 3 times with 30 μl D-PBS (w/o Ca^2+ and Ma^2+) and permeabilization was done by adding 20 μl ice cold methanol for 20 minutes. Cells were washed again 3 times with 30 μl D-PBS and 20 μl blocking buffer (25 ml fetal bovine serum in 500 ml D-PBS) was added for 1 hour.
After removing blocking buffer 20 μl 1/1000 primary antibody rabbit. Phospho-Rpb1 CTD (Ser5) antibody was added which binds to the phosphorylated Serine5 of the heptapeptide sequences in the CTD of Rpb1. Primary antibody was removed, and plates were washed 3 times with 30 μl D-PBS followed by addition of 20 μl 1/2000 Alexa Fluor 488 goat anti rabbit IgG secondary antibody for final detection of Phospho-Rpb1 CTD (Ser5) together with 1/5000 HCS CellMask™ Deep Red stain for membrane staining and 1/5000 Hoechst 33258 for nucleus staining. Last, plates were washed 2 times with 30 μl D-PBS and wells were filled with 40 μL D-PBS, plates were sealed (Thermowell sealing tape) and stored at 4° C. until reading. Plates were read with Opera Phenix (Perkin Elmer) with 10× air objective. Data were calculated and analyzed in Phaedra.
IC50 values were calculated using the following formula:
Average value of all HC's and all LC's are used for normalizations. % Effect=100−(sample−LC)/(HC−LC)×100% Control=(sample/HC)×100
A best-fit curve is fitted by a minimum sum of squares method to the plot of % Control vs. compound concentration. From this an IC50 value can be obtained. An estimate of the slope of the plot in terms of the Hill coefficient is also obtained.

T1 sequence (P50613 whole entry, the tested form may be a part): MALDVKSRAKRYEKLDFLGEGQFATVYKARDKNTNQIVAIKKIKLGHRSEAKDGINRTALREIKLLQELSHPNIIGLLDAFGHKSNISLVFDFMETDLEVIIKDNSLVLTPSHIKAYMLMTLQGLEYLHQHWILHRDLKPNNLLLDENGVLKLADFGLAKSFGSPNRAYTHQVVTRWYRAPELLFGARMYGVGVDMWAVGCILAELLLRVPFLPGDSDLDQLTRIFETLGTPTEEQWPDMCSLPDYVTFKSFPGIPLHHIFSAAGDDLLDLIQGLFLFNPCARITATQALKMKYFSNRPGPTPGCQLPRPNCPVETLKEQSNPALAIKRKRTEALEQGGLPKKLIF
T1 sequence (P51946 whole entry partner, the tested form may be a part): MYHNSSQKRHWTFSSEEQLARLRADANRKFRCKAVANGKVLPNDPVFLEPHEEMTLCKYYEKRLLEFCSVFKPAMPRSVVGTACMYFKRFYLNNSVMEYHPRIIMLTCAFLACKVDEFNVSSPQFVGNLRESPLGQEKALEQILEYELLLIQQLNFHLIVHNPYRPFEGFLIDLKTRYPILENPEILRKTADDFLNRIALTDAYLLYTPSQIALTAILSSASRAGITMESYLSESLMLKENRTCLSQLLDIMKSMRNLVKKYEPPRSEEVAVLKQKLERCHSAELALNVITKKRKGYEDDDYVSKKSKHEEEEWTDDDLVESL
T1 sequence (P51948 whole entry partner, the tested form may be a part): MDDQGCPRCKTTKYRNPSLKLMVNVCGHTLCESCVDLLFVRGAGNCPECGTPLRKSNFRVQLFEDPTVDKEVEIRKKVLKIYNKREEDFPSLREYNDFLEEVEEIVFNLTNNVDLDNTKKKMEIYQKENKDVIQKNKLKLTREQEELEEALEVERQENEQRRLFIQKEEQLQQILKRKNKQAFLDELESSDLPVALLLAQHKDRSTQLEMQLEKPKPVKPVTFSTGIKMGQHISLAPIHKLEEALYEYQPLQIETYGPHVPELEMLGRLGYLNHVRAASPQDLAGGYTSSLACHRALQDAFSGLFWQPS

C[C@@H]1Cc2cnc(NC3CCOCC3)nc2CN1C(=O)[C@@H]1CC[C@H](N(C)C)CN1c1ccccc1 (mixture of isomers) [Compound 168]
CDK7 (20 nM) pIC50 [1]: 5.87 | IC50 [2]: > 10000 nM

C[C@@H]1Cc2cnc(NC3CCOCC3)nc2CN1C(=O)[C@H]1CCN(C)C[C@@H]1C1CC1 (racemic) [Compound 111]
IC50 [1]: 214 nM | IC50 [2]: 8320 nM

C[C@@H]1Cc2cnc(N[C@@H]3CCN(C)C(=O)C3)nc2CN1C(=O)[C@H]1CCN(C)C[C@@H]1c1ccccc1 (relative stereo) [Compound 4]
IC50 [1]: 35.5 nM | IC50 [2]: ~8130 nM

Cc1cc([C@H]2CN(C)CC[C@@H]2C(=O)N2Cc3nc(NC4CCOCC4)ncc3C[C@H]2C)ccn1 (relative stereo) [Compound 103]
IC50 [1]: > 10000 nM | IC50 [2]: > 10000 nM

CO[C@H]1CC[C@H](Nc2ncc3c(n2)CN(C(=O)[C@H]2CCN(C)C[C@@H]2c2ccnc(C)c2)[C@H](C)C3)CC1 (relative stereo) [Compound 106]
IC50 [1]: 6030 nM | IC50 [2]: > 10000 nM

Cc1ccc([C@H]2CN(C)CC[C@@H]2C(=O)N2Cc3nc(NC4CCOCC4)ncc3C[C@H]2C)cn1 (relative stereo) [Compound 107]
IC50 [1]: > 10000 nM | IC50 [2]: > 10000 nM

CO[C@H]1CC[C@H](Nc2ncc3c(n2)CN(C(=O)[C@@H]2CCN(C)C[C@H]2c2ccc(C)nc2)[C@H](C)C3)CC1 (relative stereo) [Compound 109]
IC50 [1]: > 10000 nM | IC50 [2]: > 10000 nM

C[C@@H]1Cc2cnc(NC3CCOCC3)nc2CN1C(=O)[C@@H]1CCN(C)C[C@H]1C1CC1 (relative stereo) [Compound 112]
IC50 [1]: > 10000 nM | IC50 [2]: > 10000 nM

C[C@@H]1Cc2cnc(NC3CCOCC3)nc2CN1C(=O)[C@H]1CCN(C)C[C@@H]1C1CC1 (relative stereo) [Compound 113]
IC50 [1]: 79.4 nM | IC50 [2]: 1740 nM

C[C@@H]1Cc2cnc(NC3CCOCC3)nc2CN1C(=O)[C@H]1CCN(C)C[C@@H]1c1ccc(F)c(Cl)c1 (relative stereo) [Compound 114]
IC50 [1]: 11 nM | IC50 [2]: 56.2 nM

C[C@@H]1Cc2cnc(NC3CCOCC3)nc2CN1C(=O)[C@H]1CCN(C)C[C@@H]1C1CCOCC1 (relative stereo) [Compound 115]
IC50 [1]: 120 nM | IC50 [2]: 6310 nM

C[C@@H]1Cc2cnc(NC3CCOCC3)nc2CN1C(=O)[C@@H]1CCN(C)C[C@H]1c1ccncc1 (relative stereo) [Compound 116]
IC50 [1]: 37.2 nM | IC50 [2]: 1410 nM

C[C@@H]1Cc2cnc(NC3CCOCC3)nc2CN1C(=O)[C@@H]1CCN(C)C[C@H]1c1cccnc1 (relative stereo) [Compound 117]
IC50 [1]: 16.2 nM | IC50 [2]: > 10000 nM

Cc1ccc([C@H]2CN(C)CC[C@@H]2C(=O)N2Cc3nc(NC4CCOCC4)ncc3C[C@H]2C)cc1 (relative stereo) [Compound 118]
IC50 [1]: 11.7 nM | IC50 [2]: 269 nM

C[C@@H]1Cc2cnc(NC3CCOCC3)nc2CN1C(=O)[C@H]1CCN(C)C[C@@H]1c1cccc(Cl)c1 (relative stereo) [Compound 119]
IC50 [1]: 72.4 nM | IC50 [2]: ~39.8 nM

C[C@@H]1Cc2cnc(NC3CCOCC3)nc2CN1C(=O)[C@H]1CCN(C)C[C@@H]1c1ccc(F)cc1 (relative stereo) [Compound 120]
IC50 [1]: 12 nM | IC50 [2]: ~67.6 nM

Cc1cccc([C@@H]2CN(C)CC[C@H]2C(=O)N2Cc3nc(Nc4cnn(C)c4)ncc3C[C@H]2C)c1 (relative stereo) [Compound 125]
IC50 [1]: 339 nM | IC50 [2]: 794 nM

Cc1cccc([C@@H]2CN(C)CC[C@H]2C(=O)N2Cc3nc(NC4CCOCC4)ncc3C[C@H]2C)c1 (relative stereo) [Compound 137]
IC50 [1]: 457 nM | IC50 [2]: 955 nM

C[C@@H]1Cc2cnc(NCc3ccccc3)nc2CN1C(=O)[C@H]1CCN(C)C[C@@H]1C(F)(F)F (relative stereo) [Compound 142]
IC50 [1]: 2950 nM | IC50 [2]: 4170 nM

C[C@@H]1Cc2cnc(NC3CCOCC3)nc2CN1C(=O)[C@H]1CN(C)C[C@@H]1c1ccccc1 (relative stereo) [Compound 169a]
IC50 [1]: 468 nM | IC50 [2]: > 10000 nM

C[C@@H]1C[C@H](C(=O)N2Cc3nc(NC4CCOCC4)ncc3C[C@H]2C)[C@@H](c2ccccc2)CN1C (relative stereo) [Compound 170a]
IC50 [1]: 794 nM | IC50 [2]: > 10000 nM

C[C@@H]1CN(C(=O)[C@H]2CCN(C)C[C@@H]2c2ccccc2)[C@H](C)c2nc(NC3CCOCC3)ncc21 (relative stereo) [Compound 182]
IC50 [1]: 724 nM | IC50 [2]: 4270 nM

C[C@@H]1c2nc(NC3CCOCC3)ncc2CCN1C(=O)[C@H]1CCN(C)C[C@@H]1c1ccccc1 (relative stereo) [Compound 183]
IC50 [1]: > 10000 nM | IC50 [2]: > 10000 nM

C[C@H]1c2nc(NC3CCOCC3)ncc2CCN1C(=O)[C@H]1CCN(C)C[C@@H]1c1ccccc1 (relative stereo) [Compound 184]
IC50 [1]: 25.7 nM | IC50 [2]: 537 nM

CC(C)N1CC[C@H](C(=O)N2Cc3nc(NC4CCOCC4)ncc3C[C@H]2C)[C@@H](c2ccc(Cl)c(F)c2)C1 (single isomer, unassigned) [Compound 162]
CDK7 (20 nM) pIC50 [1]: 6.95

From patent US12679839B2, “Cyclin-dependent kinase 7 (CDK7) non-covalent inhibitors” (JANSSEN PHARMACEUTICA NV, priority 2020, dated 2026)
